Results taken from patent US6461844B1, “Liver GalNAc-1-phosphate kinase” (The Board of Trustees of the University of Arkansas, priority 1995, dated 2002).

Legend:
GalNAc kinase [1] = target: T1, GalNAc kinase (Sus scrofa, UniProt A0A287BB25); test: Effect of substrate concentration on GalNAc kinase activity (Km); type: biochemical, pig; details: 300 μM GalNAc; Lineweaver-Burk; read-out: Km for ATP
T1 construct: This enzyme was purified about 1400-fold from the cytosolic fraction of pig kidney; from tissue; host or cells: pig kidney cytosol
Description: (§1) In FIG. 3A, various amounts of GalNAc were added to otherwise standard incubation mixtures containing 300 μM ATP, and the amount of GalNAc phosphorylated by the purified enzyme was determined. In FIG. 3B, the data was replotted by the method of Lineweaver and Burk. In FIG. 3C, various amounts of the other substrate, ATP, were added to otherwise standard incubation mixtures containing saturating (300 μM) levels of GalNAc and the amount of phosphorylation of GalNAc by the purified enzyme was determined.
(§2) GalNAc kinase activity was assayed in incubation mixtures of 200 μl containing the following components: [^3H]GalNAc (10,000 cpm), 1 μmole of ATP, 2 μmoles of MgCl2, 20 μmoles of Tris-HCl buffer, pH 7.5, and various amounts of the enzyme preparations to be assayed. Following an incubation for the appropriate time, the reaction was stopped by heating at 100° C. for 5 min., and the incubation mixture was applied to a column of DE-52. The column was washed with at least 5 column volumes of 10 mM (NH4)HCO3 buffer to remove unbound material, and then GalNAc phosphate was eluted with 500 mM ammonium bicarbonate. Aliquots of the wash and eluent were removed and assayed for their radioactive content by scintillation counting.

GalNAc kinase [2] = target: T1, GalNAc kinase; test: Phosphate donor specificity of GalNAc kinase; type: biochemical, pig; design: Radioactivity in Sugar-P: unit not given beside the values
GalNAc kinase [3] = target: T1, GalNAc kinase; test: Azido-ATP[32P] photoaffinity labeling of the purified kinase; type: binding, pig; details: unlabeled nucleotide added
Description: The proteins were transferred to nitrocellulose membranes and exposed to film to detect the radioactive bands.
The purified enzyme fraction was incubated with azido-ATP[^32P], exposed to UV light and run on SDS gels. […] The product of the reaction was characterized as GalNAc-α-1-P by susceptibility of the phosphate group to mild acid hydrolysis, by its mobility on TLC and Dionex chromatography, and by high resolution NMR.
The GalNAc kinase was purified from the cytosolic fraction of pig kidney using the purification scheme described in the section above and outlined in Table I. Using this procedure, the kinase was purified about 1400-fold from crude extracts with a recovery of about 24%. […] In addition, the amount of label in that band increased with increasing amounts of the probe, and the labeling was inhibited by adding unlabeled ATP, but not by other nucleotides. […] Moreover, gel filtration of the native enzyme on Sephadex G-100 gave an activity peak in the region where proteins of about 48-51 kDa elute. Thus the native protein is probably a monomer of about 50 kDa molecular weight. Sufficient amounts of this protein band can be prepared to determine the amino acid sequence and to prepare antibodies.

[4] = Acid lability of the phosphate group of sugar phosphates; type: physicochemical; details: 0.05 N HCl, 100° C., up to 50 minutes
Description: A large amount of the radioactive product formed by the GalNAc kinase was isolated and purified on a DE-52 column, and this product was suspended in 0.05 N HCl and placed in a hot water bath at about 95° C. At various times, aliquots of the reaction mixture were removed, cooled, neutralized and passed through a column of DE-52 to determine whether the ^3H-GalNAc had lost its charge. Standards of Glc-6-P, Glc-1-P, GalNAc-1-P and GlcNAc-6-P were also subjected to the same hydrolysis conditions and were tested for their susceptibility to loss of phosphate.
The radioactive material was examined for purity and characterization by TLC chromatography on cellulose plates in 70% ethanol: 1 M ammonium acetate, pH 7.5 (7:3), or in 70% ethanol: 1 M ammonium acetate, pH 3.5 (7:3). The product was subjected to HPLC on the Dionex apparatus, using a column to separate various sugar phosphates from each other. Sugar-1-phosphates were distinguished from sugar-6-phosphates by their susceptibility to acid hydrolysis in 0.05 N HCl at 100° C. Sugar-1-phosphates are rapidly hydrolyzed whereas sugar-6-phosphates are stable. […]
The radioactive product from the ion exchange columns was suspended in 0.05 N HCl and heated at 100° C. for various periods of time. […] The amount of radioactivity that emerged in the wash was taken as a measure of removal of the phosphate group. […]

[5] = tested on: UDP-GlcNAc pyrophosphorylases; details: UDP-GlcNAc = 100%; cited from earlier work
[6] = tested on: UDP-GlcNAc pyrophosphorylase; details: partially purified enzyme; cited from earlier work
[7] = substrate: CC(=O)N[C@H]1C(O)O[C@H](CO)[C@H](O)[C@@H]1O; test: Effect of substrate concentration on GalNAc kinase activity (Km); type: biochemical, pig; details: other: 300 μM ATP; Lineweaver-Burk; pH 7.5
Description: as §1, §2

Nc1ncnc2c1ncn2[C@@H]1O[C@H](COP(=O)(O)OP(=O)(O)OP(=O)(O)O)[C@@H](O)[C@H]1O [ATP]
Km (GalNAc kinase [1]): 100 µM
activity as phosphate donor (GalNAc kinase [2]): by far the best phosphate donor
Radioactivity in Sugar-P (GalNAc kinase [2]; nucleotide added at 5 mM): 10,195
Specific Activity (GalNAc kinase [2]; nucleotide added at 5 mM): 160.0 nmol/mg
effect on labeling of the 50 kDa band by ATP[32P] photoaffinity probe (GalNAc kinase [3]): inhibited

CC(=O)N[C@@H]1C(O)[C@H](O)[C@@H](COP(=O)(O)O)O[C@H]1O (stereo partly drawn) [GlcNAc-6-phosphate]
stability to acid hydrolysis [4]: quite stable

CC(=O)N[C@H]1[C@@H](OP(=O)(O)OP(=O)(O)OC[C@H]2O[C@@H](n3ccc(=O)[nH]c3=O)[C@H](O)[C@@H]2O)O[C@H](CO)[C@H](O)[C@@H]1O [UDP-GalNAc]
activity towards substrate [5]: 3%
rate of pyrophosphorolysis relative to UDP-GlcNAc [6]: about 2.8%

B1: GalNAc kinase (Sus scrofa) (protein)
chain: MATEGPPVHQVQVAEHPRLLKLKEIFNSKFGSIPKFYVRAPGRVNIIGEHIDYCGYSVLPMAVEQDMLIAVEPVKTHTLQLANTNPLYPDFNTSADNIQIDKTKPLWHNYFLCGFKGIQEHFGLSNLIGMNCLVDGNIPPSSGLSSSSALVCCAGLVTLTVLGMNLSKVELAEICAKSERYIGTEGGGMDQSISFLAEEGTAKLIEFSPLRATDVKLPSGAVFVIANSCVEMNKAATSHFNIRVMECRLAAKLLAKHRSLQWDKVLRLEEVQAKLGVSLEEMLLITEDTLHPEPYSPEEVCQCLGISLQELKTQILSPNTQDVLTFKLYQRAKHVYSEAARVLQFKKICEEAPDDMVQLLGELMNQSHVSCRDMYECSCPELDQLVDICRKFGAQGSRLTGAGWGGCTVSIVLADKLPSFLANVHEAYYQKSGRSLAPEKQSLFATKPGGGALVFLEA
notes: This enzyme was purified about 1400-fold from the cytosolic fraction of pig kidney; from tissue; host or cells: pig kidney cytosol
Km [7]: 50 µM
